These results are taken from ChEMBL document CHEMBL3045261, “Study on the quantitative structuretoxicity relationships of benzoic acid derivatives in rats via oral LD50” (Med Chem Res, 2009).

The data set deals with Rattus norvegicus. Description: Toxicity in po dosed Rattus norvegicus (rat). As to conditions: in vivo.
Take `O=C(O)c1c(Cl)ccc(Cl)c1O`: the pLD50 stood at 7.35. Take `COC(=O)c1cc([N+](=O)[O-])ccc1Cl`: the pLD50 is reported as 8.59. For the compound `Cc1ccc(OC(=O)c2ccccc2O)cc1`, the pLD50 turned out to be 7.17. Regarding `COC(=O)c1cccc(C)c1O`, the pLD50 came out at 8.25. In turn, `CC(C)COC(=O)c1ccccc1O` displayed a pLD50 of 7.35. In the case of `CC(C)CCOC(=O)c1ccccc1O`, the pLD50 was 8.1. The compound `O=C(O)c1c(Cl)ccc(Cl)c1Cl` [2,3,6-TRICHLOROBENZOIC ACID] came in with a pLD50 of 6.48. Turning to `COc1cccc(OC)c1C(=O)O` [2,6-DIMETHOXYBENZOIC ACID], the pLD50 was 6.21.

As for `COC(=O)c1ccccc1OC(N)=O` [2-(AMINOCARBONYL)OXYBENZOIC ACID METHYL ESTER], the pLD50 was found to be 7.82. On to `O=C(O)c1ccccc1C(=O)c1ccccc1` [2-BENZOYLBENZOIC ACID], for which the pLD50 turned out to be 8.43. `O=C(O)Cc1ccccc1C(=O)O` [2-CARBOXYBENZENEACETIC ACID] registered a pLD50 of 6.21. Take `CNc1ccccc1C(=O)OC` [2-METHYLAMINOBENZOIC ACID METHYL ESTER]: the pLD50 turned out to be 8.13. `Nc1c(Cl)cc(Cl)cc1C(=O)O` [3,5-DICHLOROANTHRANILIC ACID] came in with a pLD50 of 8.32. In turn, `O=C(O)c1cc([N+](=O)[O-])cc([N+](=O)[O-])c1O` [3,5-DINITROSALICYLIC ACID] had a pLD50 of 6.76.

For the compound `COc1c(Cl)ccc(Cl)c1C(=O)O` [3,6 DICHLOROMETHOXYBENZOIC ACID], the pLD50 came out at 6.95. Take `O=C(O)c1ccc(Cl)c([N+](=O)[O-])c1` [4-CHLORO-3-NITROBENZOIC ACID]: the pLD50 is recorded as 8.06. As to `CCOC(=O)c1ccc(OC)cc1` [4-METHOXYBENZOIC ACID ETHYL ESTER], the pLD50 is recorded as 7.62. With `CCOC(=O)c1ccc([N+](=O)[O-])cc1` [4-NITROBENZOIC ACID ETHYL ESTER], the pLD50 amounted to 7.89. Regarding `O=C(O)c1ccc([N+](=O)[O-])cc1` [4-NITROBENZOIC ACID], the pLD50 is 7.58.

Compound `O=C(Cl)c1ccc([N+](=O)[O-])cc1` [4-NITROBENZOYL CHLORIDE] returned a pLD50 of 8.63. For `O=C(O)c1cc(Cl)ccc1O` [5-CHLOROSALICYLIC ACID], the pLD50 is 5.52. For `Nc1ccc(C(=O)O)cc1` [AMINOBENZOIC ACID], the pLD50 was 8.7. In turn, `Nc1ccccc1C(=O)O` [ANTHRANILIC ACID] registered a pLD50 of 8.6.

Consider `CC(=O)Oc1ccccc1C(=O)O` [ASPIRIN], for which the pLD50 is 5.3. `CCOC(=O)c1ccc(N)cc1` [BENZOCAINE] displayed a pLD50 of 8.02. The value for `CC(C)CCOC(=O)c1ccccc1` [BENZOIC ACID 1-(3-METHYL)BUTYL ESTER] was 8.75. As to `CC(C)OC(=O)c1ccccc1` [BENZOIC ACID 1-METHYLETHYL ESTER], the pLD50 is listed as 8.22. The result for `O=C(OCC1CO1)c1ccccc1` (centres undefined) [BENZOIC ACID 2,3-EPOXYPROPYL ESTER] reads 7.25; that for `CC(C)COC(=O)c1ccccc1` [BENZOIC ACID 2-METHYLPROPYL ESTER], 8.63; that for `O=C(Oc1cccc(O)c1)c1ccccc1` [BENZOIC ACID 3-HYDROXYPHENYL ESTER], 6.68. The compound `CC(C)=CCOC(=O)c1ccccc1` [BENZOIC ACID 3-METHYL-2-BUTENYL ESTER] registered a pLD50 of 8.46. For `Cc1ccc(OC(=O)c2ccccc2)cc1` [BENZOIC ACID 4-METHYLPHENYL ESTER], the pLD50 is on record as 7.88. The result for `CCCCCCOC(=O)c1ccccc1` [BENZOIC ACID HEXYL ESTER] reads 9.42; that for `C=COC(=O)c1ccccc1` [BENZOIC ACID VINYL ESTER], 8.09; that for `O=C(O)c1ccccc1` [BENZOIC ACID], 7.44. `O=C(Cl)c1ccccc1` [BENZOYL CHLORIDE] had a pLD50 of 7.55. The result for `O=C(OCc1ccccc1)c1ccccc1O` [BENZYL SALICYLATE] reads 7.71; that for `CCCCOC(=O)c1ccccc1N` [BUTYL 2-AMINOBENZOATE], 8.52. The value for `Nc1cc(Cl)cc(C(=O)O)c1Cl` [CHLORAMBEN] was 8.16; that for `CCOC(=O)c1ccccc1` [ETHYL BENZOATE] was 7.65. The compound `CCOC(=O)c1ccccc1O` [ETHYL SALICYLATE] showed a pLD50 of 7.191. For the compound `O=C(O)c1ccccc1OP(=O)(O)O` [FOSFOSAL], the pLD50 stood at 7.01. Take `Cc1cccc(C(=O)O)c1O` [HYDROXYTOLUIC ACID]: the pLD50 was determined as 6.1. The compound `Nc1ccc(O)c(C(=O)O)c1` [MESALAMINE] gave a pLD50 of 7.94.

`COC(=O)c1ccccc1OC` [METHYL 2-METHOXYBENZOATE] had a pLD50 of 8.241. As for `COC(=O)c1ccc(OC)cc1` [METHYL 4-METHOXYBENZOATE], the pLD50 amounted to 8.52. The compound `COC(=O)c1ccccc1O` [METHYL SALICYLATE] had a pLD50 of 6.79. The result for `O=C(O)c1ccccc1/N=C/c1ccccc1` [N-BENZYLIDENEANTHRANILIC ACID] reads 6.21. In turn, `O=C(O)c1ccc(O)cc1` [PARABEN] showed a pLD50 of 9.21. Turning to `O=C(Oc1ccccc1)c1ccccc1O` [PHENYL SALICYLATE], the pLD50 is reported as 8.01. In turn, `CCCOC(=O)c1cc(O)c(O)c(O)c1` [PROPYL GALLATE] had a pLD50 of 7.65.

In the case of `NC(=O)c1ccccc1O` [SALICYLAMIDE], the pLD50 came to 6.89. Compound `O=C(O)c1ccccc1O` [SALICYLIC ACID] returned a pLD50 of 6.791. Compound `O=C(O)c1cc(S(=O)(=O)O)ccc1O` [SULFOSALICYLIC] gave a pLD50 of 7.52.
